Measurements published in the NIST ThermoML archive (doi:10.1016/j.tca.2005.08.007).

Experiment: xn = mol fraction of the nth substance listed
Settings: 298.15 K, 101 kPa, Liquid; for viscosity: Capillary tube (Ostwald / Ubbelohde) method; for mass density: Vibrating tube method

C1CCCCC1 [cyclohexane] + Cc1ccccc1
Settings	mass density [kg/m3]	viscosity [mPa·s]
x2 = 0.0721	777.43	0.8574
x2 = 0.1813	784.63	0.7693
x2 = 0.2798	791.6	0.7024
x2 = 0.3613	799.02	0.651
x2 = 0.4416	806	0.6116
x2 = 0.6003	820.17	0.5532
x2 = 0.6784	827.33	0.5329
x2 = 0.7615	834.61	0.5181
x2 = 0.8396	843.41	0.5029
x2 = 0.9202	853.16	0.4976

CCCCCC [hexane] + Cc1ccccc1
Settings	mass density [kg/m3]	viscosity [mPa·s]
x2 = 0.0406	657.47	0.2774
x2 = 0.2028	690.93	0.3073
x2 = 0.2804	706.95	0.3185
x2 = 0.3596	723.29	0.3272
x2 = 0.4423	740.35	0.3421
x2 = 0.5997	772.81	0.3812
x2 = 0.6757	788.5	0.4028
x2 = 0.7597	805.83	0.43
x2 = 0.8412	822.63	0.4644
x2 = 0.9199	838.87	0.499

C1CCCCC1 [cyclohexane] + CCCCCC
Settings	mass density [kg/m3]	viscosity [mPa·s]
x1 = 0.0397	655.8	0.2833
x1 = 0.2011	674.91	0.3282
x1 = 0.2776	683.97	0.3485
x1 = 0.3617	693.92	0.3778
x1 = 0.4409	703.31	0.4077
x1 = 0.5889	720.83	0.4815
x1 = 0.6848	732.18	0.5355
x1 = 0.7608	741.18	0.5994
x1 = 0.8074	746.7	0.6444
x1 = 0.9205	760.09	0.7507
